Reference: the NIST ThermoML archive (doi:10.1021/je900093h)

Experiment: molar heat capacity at saturation pressure
Details: Crystal, Vacuum adiabatic calorimetry

CCCCCCCCCC(=O)OCC [ethyl decanoate]
Details | molar heat capacity [J/K/mol]
5.07 K | 0.5226
5.31 K | 0.6118
5.56 K | 0.7121
5.81 K | 0.825
6.07 K | 0.9558
6.36 K | 1.118
6.69 K | 1.318
7.02 K | 1.545
7.35 K | 1.796
7.7 K | 2.073
8.04 K | 2.376
8.4 K | 2.709
8.76 K | 3.071
9.12 K | 3.453
9.48 K | 3.859
9.85 K | 4.299
10.32 K | 4.888
10.9 K | 5.635
11.48 K | 6.424
12.07 K | 7.27
12.66 K | 8.157
13.26 K | 9.088
13.87 K | 10.03
14.47 K | 11.01
15.09 K | 12.05
15.81 K | 13.35
16.64 K | 14.88
17.48 K | 16.38
18.32 K | 17.92
19.16 K | 19.47
20.01 K | 21.05
21.18 K | 23.32
22.7 K | 26.32
24.23 K | 29.4
25.75 K | 32.51
27.29 K | 35.64
28.39 K | 37.87
29.64 K | 40.42
31.35 K | 43.96
33.22 K | 47.77
35.1 K | 51.55
36.98 K | 55.32
38.87 K | 59.03
40.75 K | 62.74
42.73 K | 66.71
44.82 K | 70.83
46.9 K | 74.94
49 K | 78.99
51.09 K | 82.94
53.19 K | 86.89
55.3 K | 90.74
57.4 K | 94.51
59.52 K | 98.2
61.64 K | 101.8
63.76 K | 105.3
65.89 K | 108.8
68.01 K | 112.1
70.14 K | 115.4
72.38 K | 118.9
74.72 K | 122.4
77.07 K | 125.9
79.44 K | 129.4
80.12 K | 130.3
81.8 K | 132.9
81.98 K | 133
83.85 K | 135.7
84.15 K | 136.2
85.73 K | 138.3
87.62 K | 141
89.51 K | 143.6
91.41 K | 146.2
93.31 K | 148.8
95.22 K | 151.3
97.14 K | 153.8
99.06 K | 156.2
100.98 K | 158.7
102.91 K | 161
104.84 K | 163.3
106.77 K | 165.7
108.71 K | 167.9
110.66 K | 170
112.6 K | 172.2
114.55 K | 174.3
116.5 K | 176.4
118.46 K | 178.5
120.41 K | 180.4
122.37 K | 182.4
124.33 K | 184.3
126.29 K | 186.2
128.26 K | 188
130.23 K | 189.8
130.37 K | 189.7
132.19 K | 191.6
132.31 K | 191.5
134.17 K | 193.3
134.25 K | 193.3
136.14 K | 195.1
136.19 K | 195
138.12 K | 196.8
138.13 K | 196.6
140.08 K | 198.3
140.1 K | 198.4
142.02 K | 200
142.07 K | 200.1
143.97 K | 201.6
144.06 K | 201.8
145.92 K | 203.3
146.04 K | 203.6
147.87 K | 205
148.02 K | 205.3
149.82 K | 206.5
150 K | 206.9
151.77 K | 208.2
151.98 K | 208.5
153.72 K | 209.7
153.97 K | 210
155.68 K | 211.2
155.95 K | 211.5
157.63 K | 212.8
157.93 K | 213.2
159.59 K | 214.4
159.92 K | 214.8
161.55 K | 215.9
161.91 K | 216.3
163.5 K | 217.4
163.89 K | 217.8
165.46 K | 218.9
165.88 K | 219.2
167.42 K | 220.4
167.86 K | 220.8
169.38 K | 222
169.85 K | 222.3
171.34 K | 223.6
171.83 K | 223.9
173.3 K | 225.1
173.81 K | 225.6
175.26 K | 226.6
175.79 K | 227.1
177.23 K | 228.3
177.77 K | 228.7
179.19 K | 229.8
179.74 K | 230.3
180.73 K | 230.9
181.15 K | 231.3
181.61 K | 231.8
181.72 K | 232
182.71 K | 232.5
183.11 K | 233.1
183.59 K | 233.4
183.69 K | 233.6
184.69 K | 234.2
185.07 K | 234.7
185.57 K | 235.1
185.67 K | 235.2
186.66 K | 235.8
187.04 K | 236.4
187.54 K | 236.7
187.64 K | 236.8
188.63 K | 237.5
189 K | 238
189.52 K | 238.4
189.6 K | 238.5
190.6 K | 239.3
190.96 K | 239.7
191.49 K | 240
191.57 K | 240.2
191.61 K | 240.1
192.56 K | 240.9
192.93 K | 241.4
193.45 K | 241.6
193.53 K | 241.9
193.58 K | 241.8
194.53 K | 242.6
194.89 K | 243.1
195.42 K | 243.3
195.48 K | 243.5
195.54 K | 243.5
196.49 K | 244.4
196.85 K | 244.7
197.38 K | 245
197.44 K | 245.2
197.5 K | 245.2
198.44 K | 246.2
198.81 K | 246.5
199.33 K | 246.7
199.39 K | 247
199.46 K | 246.8
200.4 K | 247.8
200.77 K | 248.3
201.28 K | 248.3
201.35 K | 248.7
201.46 K | 248.6
202.35 K | 249.5
202.74 K | 249.9
203.24 K | 250.1
203.29 K | 250.4
203.52 K | 250.4
204.3 K | 251.3
